Data published in article PMC12916490 (Molecular Psychiatry, 2025).
pKi: −log10 of the molar value.

Assays:
hD2 = target: T1, hD2 (Homo sapiens, UniProt P14416); assay: Radioligand binding, hD2 receptor ([3H]spiperone)
T1 construct: expressed in transfected cells; host or cells: HEK 293 cells (membrane preparation)
Procedure: Binding affinities at human monoamine receptors and transporters were assessed as previously reported. A detailed description of the methodology is provided in the Supplementary information.
(§1) Data analysis was performed with Prism software (version 10.1.2, GraphPad Software, Boston, MA, USA). The IC50 values from the radioligand binding assays were determined by nonlinear regression, using three independent concentration-response curves fitted to a one-site model. The Cheng-Prusoff equation was used to calculate Kᵢ values for the competing ligands. EC50 values were determined by applying nonlinear regression to concentration-response curves. Bias factors (β) were calculated based on the relative intrinsic activity approach. More detailed information can be found in the Supplementary information. Mean values for total number of HTR, change in body temperature from pre to post session (Δ°C), and total distance traveled (cm) for each drug dose were compared (p < 0.05) via Welch’s ANOVA with Dunnett’s T3 post test, comparing all doses to respective vehicle controls (0 mg/kg). Welch’s ANOVA with Dunnett’s T3 post test was also used to compare drug concentrations, but the data were compared to DOM in this case. Dose–response relationships for HTR and locomotor activities were plotted using bell-shaped curve fits, while temperature change data were plotted using four-parameter non-linear regression curve fits. The ascending phase of the HTR curve for each drug was used to determine ED50 potency values from four parameter non-linear regression fits. For combined DOM and DOAM administration, the plasma, brain tissue, and brain dialysate drug concentrations were compared using paired t-tests (p < 0.05). Ratios were compared using Holm-Sidak’s post hoc test following a repeated-measures one-way ANOVA (F (1.709, 6.835) = 70.80; p < 0.0001).
3.1 Assessment of receptor and transporter binding affinities
Membrane preparations were prepared from cells transfected with the respective target. The membrane preparations were then incubated with selective radioligands at concentrations equal to the corresponding Kd and displacement of the ligand by the drugs was measured. The difference between total binding and nonspecific binding (determined in the presence of selective competitors) was defined as specific binding of the radioligand to the target receptor. The following transfected cell lines were used for the binding assays: HEK 293 cells (h5-HT1A, h5-HT2A, h5-HT2B, h5-HT2C, and hD2 receptors, hDAT, hNET, and hSERT), Chinese hamster ovary cells (hα 1A receptor), and Chinese hamster lung cells (hα 2A receptor).
3.1.1 Membrane preparations for receptor and transporter binding
For producing membrane preparations, transfected cells were harvested with trypsin/EDTA, washed with ice-cold phosphate buffered saline, and then pelleted by centrifugation (210 × g for 5 min at 4 °C). The pellets were frozen and stored at -80 °C until use. Frozen pellets were resuspended in 20 m L (receptor binding) or 400 m L (transporter binding) buffer (20 mM HEPES -NaOH, 10 mM EDTA, pH 7.4), and homogenized at 1,100 × g for 20 s (receptor binding) or 560 × g for 15 s (transporter binding); the homogenates were then centrifuged at 48,000 × g for 30 min at 4 °C. […]
Competitive binding at the h5-HT1A and h5-HT2A receptor was determined using 0.90 nM [ 3H]8-hydroxy-2-(di-n-propylamine)tetralin ([ 3H]8-OH-DPAT; h5-HT1A receptor agonist) and 0.40 nM [3H]ketanserin (h5-HT2 receptor antagonist) as radioligands. […]

C57BL/6 J mice = assay: Body temperature change in mice (dose-response sessions); format: in vivo, mouse; conditions: pre to post 30-min session, mean ± SEM
Procedure: Behavioral studies were conducted as previously described with minor modifications. Male C57BL/6 J mice (The Jackson Laboratory #000664, 24 mice/drug) were purchased at 8 weeks old, group housed for acclimation (3–5 per cage for 1–2 weeks) under a 12:12 light:dark cycle (07:00 local time = lights on), with ad libitum access to food and water at the NIDA IRP facilities in Baltimore, MD, USA. All experiments were approved by the NIDA IRP Animal Care and Use Committee. After acclimation to the vivarium facilities, each mouse was briefly anesthetized with isoflurane and a temperature transponder (14 × 2 mm, model IPTT-300, Bio Medic Data Systems, Inc., Seaford, DE, USA) was implanted subcutaneously (s.c.) on the back, posterior to the shoulder blades. After the implant, mice were single housed and allowed one week recovery prior to the start of experiments. […] Drugs were randomly assigned and administered s.c. as the weight of the form used at an injection volume of 0.01 mL/g body weight.
During experimental testing, mice were tested once every 1–2 weeks to avoid potential tolerance to behavioral effects of the test drugs and were tested 2–3 times in total per drug. Each test session began with a brief 5 min acclimation period to the testing arenas, followed by recording baseline body temperature using a handheld wand that was sensitive to the signals emitted from the s.c. transponder. After this, mice were injected s.c. with appropriate doses of test drug and returned to the chambers for a 30-min test session. During the dose-response sessions, locomotor activity was continuously recorded using open field chambers with photobeam arrays (Coulbourn Instruments, Holliston, MA, USA) that were modified with cylindrical inserts and custom floor panels that also allowed video recordings of each mouse to later quantify HTR activity (GoPro Hero 7 camera; 960p resolution at 120 frames per second). Videos for each mouse were analyzed post session using commercially available software used to quantify HTR as previously described.
as §1
Locomotor activity and body temperature were also assessed to monitor other pharmacological effects of the drugs that may impact the HTR. […]

h5-HT2C = target: T2, h5-HT2C (Homo sapiens, UniProt P28335); assay: biochemical; format: binding
T2 sequence (P28335 33-458): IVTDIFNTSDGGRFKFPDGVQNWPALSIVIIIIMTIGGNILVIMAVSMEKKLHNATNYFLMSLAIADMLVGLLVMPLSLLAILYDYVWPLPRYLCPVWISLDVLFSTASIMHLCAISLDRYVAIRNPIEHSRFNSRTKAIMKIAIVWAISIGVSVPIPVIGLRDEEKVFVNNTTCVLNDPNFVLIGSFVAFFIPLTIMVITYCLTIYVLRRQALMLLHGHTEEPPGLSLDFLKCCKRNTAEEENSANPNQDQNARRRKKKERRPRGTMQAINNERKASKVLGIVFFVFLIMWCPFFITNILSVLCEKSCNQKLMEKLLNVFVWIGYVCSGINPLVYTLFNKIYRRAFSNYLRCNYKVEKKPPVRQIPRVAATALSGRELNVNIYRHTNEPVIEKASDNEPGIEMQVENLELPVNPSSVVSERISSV

T1 sequence (P14416 whole entry): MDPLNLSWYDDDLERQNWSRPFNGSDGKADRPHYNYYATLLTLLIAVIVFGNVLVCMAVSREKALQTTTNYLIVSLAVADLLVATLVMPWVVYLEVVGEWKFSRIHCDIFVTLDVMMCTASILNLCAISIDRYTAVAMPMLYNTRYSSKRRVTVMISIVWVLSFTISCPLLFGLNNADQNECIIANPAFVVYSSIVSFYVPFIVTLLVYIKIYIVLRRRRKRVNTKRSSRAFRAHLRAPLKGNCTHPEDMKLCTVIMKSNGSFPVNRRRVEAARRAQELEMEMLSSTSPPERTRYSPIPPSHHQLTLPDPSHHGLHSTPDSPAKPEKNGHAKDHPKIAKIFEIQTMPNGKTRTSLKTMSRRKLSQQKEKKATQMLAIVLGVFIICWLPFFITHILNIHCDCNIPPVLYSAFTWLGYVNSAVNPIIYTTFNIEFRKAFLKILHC

| SMILES | pKi (hD2) | ΔTemperature (C57BL/6 J mice; 0.03 mg/kg s.c.) | ΔTemperature (C57BL/6 J mice; 0.1 mg/kg s.c.) | ΔTemperature (C57BL/6 J mice; 0.3 mg/kg s.c.) | ΔTemperature (C57BL/6 J mice; 1 mg/kg s.c.) | ΔTemperature (C57BL/6 J mice; 3 mg/kg s.c.) | ΔTemperature (C57BL/6 J mice; 10 mg/kg s.c.) | ΔTemperature (C57BL/6 J mice; 30 mg/kg s.c.) | pKi (h5-HT2C) | ΔTemperature (C57BL/6 J mice; 0.01 mg/kg s.c.) |
| --- | --- | --- | --- | --- | --- | --- | --- | --- | --- | --- |
| COc1ccc(OC)c(CC(C)N)c1.Cl (centres unmarked) [2,5-DMA, 2,5-Dimethoxyamphetamine hydrochloride] | < 4.89 | 0.4 ± 0.1 °C | 0.3 ± 0.1 °C | 0.5 ± 0.1 °C | 0.2 ± 0.1 °C | 0.2 ± 0.2 °C | -0.9 ± 0.2 °C | -4.0 ± 0.5 °C | < 5.30 | – |
| CCc1cc(OC)c(CC(C)N)cc1OC (centres unmarked) [DOET, 4-ethyl-2,5-dimethoxyamphetamine] | < 4.89 | – | – | – | – | – | – | – | – | – |
| CCCCCc1cc(OC)c(CC(C)N)cc1OC (centres unmarked) [DOAM, 4-amyl-2,5-dimethoxyamphetamine] | < 4.89 | 0.0 ± 0.1 °C | 0.0 ± 0.1 °C | -0.3 ± 0.2 °C | -0.1 ± 0.2 °C | -0.2 ± 0.1 °C | -0.2 ± 0.2 °C | -3.9 ± 0.4 °C | 7.12 | – |
| CCCCc1cc(OC)c(CC(C)N)cc1OC (centres unmarked) [DOBU, 4-butyl-2,5-dimethoxyamphetamine] | < 4.89 | -0.1 ± 0.1 °C | -0.1 ± 0.2 °C | 0.1 ± 0.1 °C | -0.4 ± 0.1 °C | -0.3 ± 0.2 °C | -1.7 ± 0.6 °C | -5.5 ± 0.4 °C | 7.22 | – |
| CCCc1cc(OC)c(CC(C)N)cc1OC.Cl (centres unmarked) [DOPR, 4-propyl-2,5-dimethoxyamphetamine hydrochloride] | – | 0.1 ± 0.1 °C | 0.1 ± 0.2 °C | 0.0 ± 0.2 °C | -0.1 ± 0.1 °C | -3.0 ± 0.6 °C | -4.9 ± 0.5 °C | – | 7.33 | 0.3 ± 0.2 °C |
| COc1cc(CC(C)N)c(OC)cc1C (centres unmarked) [DOM, 4-methyl-2,5-dimethoxyamphetamine] | < 5.12 | -0.1 ± 0.1 °C | 0.0 ± 0.1 °C | -0.1 ± 0.1 °C | 0.1 ± 0.1 °C | -0.2 ± 0.1 °C | -2.2 ± 0.8 °C | -6.5 ± 0.2 °C | – | – |
